Assay results taken from publication PMC12216609, “Inhibitors of eIF1A-ribosome interaction unveil uORF-dependent regulation of translation initiation and antitumor and antiviral effects” (The EMBO Journal, 2025).
“And” between values parts separate entries of the source, which are not always exact repeats. Identical values can stand only once.

What follows are compounds tested against T1, eIF1A (Homo sapiens, UniProt P47813) (assay: not given). Details: 1Ai conc. 0.25 uM; background-corrected, relative to DMSO or lowest 1Ai concentration; replicate columns.
T1 construct: His-bdSUMO (cleaved yes); made in house; host or cells: E. coli BL-21
Type: binding
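Wherever LONG (summary - All), normalized to DMSO is given: luciferase signal corrected by a co-transfected GFP reporter for transfection efficiency, read after overnight compound exposure, with Long and Short reporters differing in 5'UTR length.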
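Wherever Reference vs IRF7 (Final data, Fig. 1E) is given: luciferase signal corrected by a co-transfected GFP reporter for transfection efficiency, read after overnight compound exposure, with Long and Short reporters differing in 5'UTR length.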
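Wherever SHORT (summary - All), normalized to DMSO is given: luciferase signal corrected by a co-transfected GFP reporter for transfection efficiency, read after overnight compound exposure, with Long and Short reporters differing in 5'UTR length.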
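Wherever US/DS ratio, average is given: ratio of upstream to downstream AUG initiation products on GFP Western blot.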
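Wherever average ( long vs short ratio) is given: luciferase signal corrected by a co-transfected GFP reporter for transfection efficiency, read after overnight compound exposure, with Long and Short reporters differing in 5'UTR length.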

T1 sequence (P47813 whole entry): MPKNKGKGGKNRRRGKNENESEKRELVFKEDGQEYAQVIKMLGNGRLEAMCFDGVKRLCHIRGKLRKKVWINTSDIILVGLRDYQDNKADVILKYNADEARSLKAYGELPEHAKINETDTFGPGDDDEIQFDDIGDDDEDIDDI

**Q.** With Cc1cc(-n2c(C)cc(-c3csc(N)n3)c2C)no1 [1Ai-6464] as the compound, how does the “fluorescence ratio, eIF1A” value read?
**A.** Its value is 0.9721 and 0.9575.

Same assay, conditions: 1Ai conc. 0.5 uM; background-corrected, relative to DMSO or lowest 1Ai concentration; replicate columns

**Q.** How did the “fluorescence ratio, eIF1A” value turn out when Cc1cc(-n2c(C)cc(-c3csc(N)n3)c2C)no1 [1Ai-6464] was run?
**A.** Its value is 1.01 and 0.9713.

Same assay, conditions: 1Ai conc. 1 uM; background-corrected, relative to DMSO or lowest 1Ai concentration; replicate columns

**Q.** How did the “fluorescence ratio, eIF1A” value turn out when Cc1cc(-n2c(C)cc(-c3csc(N)n3)c2C)no1 [1Ai-6464] was run?
**A.** Its value is 0.9857.

Same assay, conditions: 1Ai conc. 2 uM; background-corrected, relative to DMSO or lowest 1Ai concentration; replicate columns

**Q.** For Cc1cc(-n2c(C)cc(-c3csc(N)n3)c2C)no1 [1Ai-6464], which “fluorescence ratio, eIF1A” value is on record?
**A.** Its value is 0.9155.

Same assay, conditions: 1Ai conc. 4 uM; background-corrected, relative to DMSO or lowest 1Ai concentration; replicate columns

**Q.** Which “fluorescence ratio, eIF1A” value does the source give for Cc1cc(-n2c(C)cc(-c3csc(N)n3)c2C)no1 [1Ai-6464] here?
**A.** The value was 0.9236 and 0.8848.

Same assay, conditions: 1Ai conc. 8 uM; background-corrected, relative to DMSO or lowest 1Ai concentration; replicate columns

**Q.** For Cc1cc(-n2c(C)cc(-c3csc(N)n3)c2C)no1 [1Ai-6464], which “fluorescence ratio, eIF1A” value is on record?
**A.** Its value is 0.5527 and 0.8172.

Same assay, conditions: 1Ai conc. 16 uM; background-corrected, relative to DMSO or lowest 1Ai concentration; replicate columns

**Q.** With Cc1cc(-n2c(C)cc(-c3csc(N)n3)c2C)no1 [1Ai-6464] as the compound, how does the “fluorescence ratio, eIF1A” value read?
**A.** Its value is 0.5305 and 0.7368.

Same assay, conditions: 1Ai conc. 32 uM; background-corrected, relative to DMSO or lowest 1Ai concentration; replicate columns

**Q.** For Cc1cc(-n2c(C)cc(-c3csc(N)n3)c2C)no1 [1Ai-6464], which “fluorescence ratio, eIF1A” value is on record?
**A.** The value was 0.4838 and 0.639.

Same assay, conditions: 1Ai conc. 64 uM; background-corrected, relative to DMSO or lowest 1Ai concentration; replicate columns

**Q.** Which “fluorescence ratio, eIF1A” value does the source give for Cc1cc(-n2c(C)cc(-c3csc(N)n3)c2C)no1 [1Ai-6464] here?
**A.** The value was 0.4268 and 0.4798.

Same assay, conditions: 1Ai conc. 256 uM; background-corrected, relative to DMSO or lowest 1Ai concentration; replicate columns

**Q.** Cc1cc(-n2c(C)cc(-c3csc(N)n3)c2C)no1 [1Ai-6464] was tested. Which “fluorescence ratio, eIF1A” value did it give?
**A.** The value was 0.2524 and 0.2775.

Same assay, conditions: eIF1A; from the titration data; read-out: IC50 (eIF1A titration block)

**Q.** How did the IC50 turn out when Cc1cc(-n2c(C)cc(-c3csc(N)n3)c2C)no1 [1Ai-6464] was run?
**A.** Its IC50 is 21.2 µM.

Same assay, conditions: summary table; fluorescence binding assay; read-out: IC50 concentration (µM), WT eIF1A

**Q.** With Cc1cc(-n2c(C)cc(-c3csc(N)n3)c2C)no1 [1Ai-6464] as the compound, how does the IC50 read?
**A.** The IC50 was 21.2 µM.

What follows are compounds tested against T2, RPS10 (Homo sapiens, UniProt P46783) (assay: not given). Details: 1Ai conc. 0.25 uM.
T2 construct: made in house; host or cells: E. coli BL-21
Type: binding

**Q.** For Cc1cc(-n2c(C)cc(-c3csc(N)n3)c2C)no1 [1Ai-6464], which “RPS10 fluorescence ratio to control” value is on record?
**A.** Its value is 0.9293.

Same assay, conditions: 1Ai conc. 0.5 uM

**Q.** For Cc1cc(-n2c(C)cc(-c3csc(N)n3)c2C)no1 [1Ai-6464], which “RPS10 fluorescence ratio to control” value is on record?
**A.** Its value is 0.9332.

Same assay, conditions: 1Ai conc. 1 uM

**Q.** For Cc1cc(-n2c(C)cc(-c3csc(N)n3)c2C)no1 [1Ai-6464], which “RPS10 fluorescence ratio to control” value is on record?
**A.** Its value is 0.9643.

Same assay, conditions: 1Ai conc. 2 uM

**Q.** With Cc1cc(-n2c(C)cc(-c3csc(N)n3)c2C)no1 [1Ai-6464] as the compound, how does the “RPS10 fluorescence ratio to control” value read?
**A.** The value was 0.9061.

Same assay, conditions: 1Ai conc. 4 uM

**Q.** Cc1cc(-n2c(C)cc(-c3csc(N)n3)c2C)no1 [1Ai-6464] was tested. Which “RPS10 fluorescence ratio to control” value did it give?
**A.** The value was 0.8558.

Same assay, conditions: 1Ai conc. 8 uM

**Q.** For Cc1cc(-n2c(C)cc(-c3csc(N)n3)c2C)no1 [1Ai-6464], which “RPS10 fluorescence ratio to control” value is on record?
**A.** The value was 0.7733.

Same assay, conditions: 1Ai conc. 16 uM

**Q.** How did the “RPS10 fluorescence ratio to control” value turn out when Cc1cc(-n2c(C)cc(-c3csc(N)n3)c2C)no1 [1Ai-6464] was run?
**A.** The value was 0.6954.

Same assay, conditions: 1Ai conc. 32 uM

**Q.** For Cc1cc(-n2c(C)cc(-c3csc(N)n3)c2C)no1 [1Ai-6464], which “RPS10 fluorescence ratio to control” value is on record?
**A.** The value was 0.5591.

Same assay, conditions: 1Ai conc. 64 uM

**Q.** How did the “RPS10 fluorescence ratio to control” value turn out when Cc1cc(-n2c(C)cc(-c3csc(N)n3)c2C)no1 [1Ai-6464] was run?
**A.** Its value is 0.4769.

Same assay, conditions: 1Ai conc. 256 uM

**Q.** For Cc1cc(-n2c(C)cc(-c3csc(N)n3)c2C)no1 [1Ai-6464], which “RPS10 fluorescence ratio to control” value is on record?
**A.** Its value is 0.3869.

Same assay, conditions: read-out: IC50 (line under RPS10 binding data)

**Q.** With Cc1cc(-n2c(C)cc(-c3csc(N)n3)c2C)no1 [1Ai-6464] as the compound, how does the IC50 read?
**A.** The IC50 was 6.4 µM.

Same assay, conditions: read-out: RPS10 IC50

**Q.** How did the IC50 turn out when Cc1cc(-n2c(C)cc(-c3csc(N)n3)c2C)no1 [1Ai-6464] was run?
**A.** Its IC50 is 6.4 µM.

Same assay, conditions: summary table; fluorescence binding assay; read-out: IC50 concentration (µM), RPS10

**Q.** For Cc1cc(-n2c(C)cc(-c3csc(N)n3)c2C)no1 [1Ai-6464], which IC50 is on record?
**A.** The IC50 was 6.4 µM.

What follows are compounds tested on CUG/GUG vs AUG start codon luciferase reporters in HEK293T cells (assay: Near-cognate AUG starting codon fidelity reporter assay (GUG, CUG vs AUG)). Details: CUG start codon reporter relative to AUG reporter (AUG = 100); compound at 20uM (summary head); single-experiment calculation.
Type: cell-based

**Q.** Which “CUG vs AUG (%)” value does the source give for Cc1cc(-n2c(C)cc(-c3csc(N)n3)c2C)no1 [1Ai-6464] here?
**A.** The value was 6.312%.

Same assay, conditions: GUG start codon reporter relative to AUG reporter (AUG = 100); compound at 20uM (summary head); single-experiment calculation

**Q.** Cc1cc(-n2c(C)cc(-c3csc(N)n3)c2C)no1 [1Ai-6464] was tested. Which “GUG vs AUG (%)” value did it give?
**A.** Its value is 1.439%.

Same assay, conditions: NUG experiment

**Q.** Which results are given for Cc1cc(-n2c(C)cc(-c3csc(N)n3)c2C)no1 [1Ai-6464]?
**A.** average CUG and GUG: 3.765; average CUG and GUG relative to DMSO: 0.8347

Same assay, conditions: NUG experiment, CUG vs AUG reporter

**Q.** For Cc1cc(-n2c(C)cc(-c3csc(N)n3)c2C)no1 [1Ai-6464], which “CUG Average” value is on record?
**A.** Its value is 6.092.

Same assay, conditions: NUG experiment, GUG vs AUG reporter

**Q.** How did the “GUG Average” value turn out when Cc1cc(-n2c(C)cc(-c3csc(N)n3)c2C)no1 [1Ai-6464] was run?
**A.** Its value is 1.4368.

Same assay, conditions: average CUG and GUG relative to DMSO; 20 µM overnight

**Q.** Which “NUG (Final data, Fig. 1E)” value does the source give for Cc1cc(-n2c(C)cc(-c3csc(N)n3)c2C)no1 [1Ai-6464] here?
**A.** The value was 0.835.

Same assay, conditions: compound at 20uM; individual repeat

**Q.** Cc1cc(-n2c(C)cc(-c3csc(N)n3)c2C)no1 [1Ai-6464] was tested. Which “GUG vs AUG data (%)” value did it give?
**A.** Its value is 1.40% and 1.10% and 1.81% and 1.45%.

Same assay, conditions: compound at 20uM; summary average of repeats; DMSO control average […]

**Q.** How did the “GUG vs AUG (%) Average” value turn out when Cc1cc(-n2c(C)cc(-c3csc(N)n3)c2C)no1 [1Ai-6464] was run?
**A.** The value was 1.44%.

Each compound was assayed on cap-proximal AUG GFP reporter in HEK293T cells (assay: not given). Details: GFP WB densitometry; 20 µM overnight; dmso 0.965946.
Type: cell-based

**Q.** How did the “US/DS ratio, average” value turn out when Cc1cc(-n2c(C)cc(-c3csc(N)n3)c2C)no1 [1Ai-6464] was run?
**A.** Its value is 0.6968.

The compounds below were run on IRF7 5'UTR firefly luciferase reporter in HEK293T cells (assay: not given). Details: 1/Result, relative to DMSO; 20 µM.

**Q.** Cc1cc(-n2c(C)cc(-c3csc(N)n3)c2C)no1 [1Ai-6464] was tested. Which “Reference vs IRF7 (Final data, Fig. 1E)” value did it give?
**A.** Its value is 2.824.

Same assay, conditions: Long reporter, 20 µM, individual replicates, outliers excluded, DMSO = 1

**Q.** Cc1cc(-n2c(C)cc(-c3csc(N)n3)c2C)no1 [1Ai-6464] was tested. Which “LONG (summary - All), normalized to DMSO” value did it give?
**A.** Its value is 0.0351 and 0.33 and 0.45 and 0.34.

Same assay, conditions: Short reporter, 20 µM, individual replicates, outliers excluded, DMSO = 1

**Q.** Cc1cc(-n2c(C)cc(-c3csc(N)n3)c2C)no1 [1Ai-6464] was tested. Which “SHORT (summary - All), normalized to DMSO” value did it give?
**A.** The value was 0.16 and 1.35 and 0.67 and 1.06.

Same assay, conditions: summary - All, 20 µM

**Q.** For Cc1cc(-n2c(C)cc(-c3csc(N)n3)c2C)no1 [1Ai-6464], which “average ( long vs short ratio)” value is on record?
**A.** Its value is 0.354.
